Experimental data taken from patent US20260226029A1, “1-(1-Oxo-1,2-Dihydrophthalazin-6-yl)Cycloalkyl-1-Carboxamide Derivatives as MTA-Cooperative Inhibitors of PRMT5” (BeOne Medicines I GmbH, priority 2023, published 2026).

Legend:
HCT116-mock-RNA-KO = test: Compounds cell killing in HCT116 isogenic pair (CellTiter-Glo, 6 days), mock-KO (MTAP wildtype) cells; format: cell-based; conditions: Homo sapiens, HCT-116, 144 h, Cell Titer-Glo, 0-10 μM
Excerpt: (§1) HCT116 cell line (ATCC, CCL-247) was isolated from the colon of an adult with colon cancer. It has a mutation in codon 13 of the ras proto-oncogene and can be used as a positive control for PCR assays of mutation in this codon. HCT116-MTAP-KO was knocked-out-MTAP-gene based HCT116, and a single clone was passed for this assay. HCT116-mock-RNA-KO was knocked-out-mock-gene based HCT116 with MTAP wildtype genotype. The base medium for HCT116 isogenic pair is RPMI 1640, HEPES (Gibco, 22400105). To make the complete growth medium, add the following components to the base medium: fetal bovine serum to a final concentration of 10% (Gibco, 10099-141C). The cell line was grown in a humidified 5% CO2 atmosphere at 37° C. and regularly tested for the presence of mycoplasma with MycoAlert™ PLUS Mycoplasma Detection Kit (Lonza, LT07-710).
(§2) • Seed HCT116-mock-RNA-KO (4E2/well) or HCT116-MTAP-KO (4E2/well) cells into a 96-well plate (Greiner: 655090), 100 µL/well. • Incubate at 37° C., 5% CO2, overnight. • Add 50 μL fresh growth-medium containing serial dilution of compounds for a final compound concentration of 0-10 μM to each well. • Incubate at 37° C., 5% CO2, 6 days. • The cell viability detected by Cell Titer-Glo (Promega, G7573). Add 70 μL of CellTiter-Glo® reagent in each well. • Incubate at room temperature for 10 minutes to stabilize luminescent signal. • Analyze with Microplate Reader (TECAN, SPARK) and fit IC50 using Prism® 9.

HCT116-MTAP-KO = test: Compounds cell killing in HCT116 isogenic pair (CellTiter-Glo, 6 days), MTAP-KO cells; format: cell-based; conditions: Homo sapiens, HCT-116, 144 h, Cell Titer-Glo, 0-10 μM
Excerpt: as §1, §2

Structure (SMILES)	IC50 (HCT116-mock-RNA-KO)	IC50 (HCT116-MTAP-KO)
C[C@H]1CCC[C@@H](c2ccc(C(F)(F)F)cn2)N1C(=O)C1(c2ccc3c(=O)[nH]nc(CN)c3c2)CC1 (racemic) [Example 24, (±)-4-(aminomethyl)-6-(1-((2S,6S)-2-methyl-6-(5-(trifluoromethyl)pyridin-2-yl)piperidine-1-carbonyl)cyclopropyl)phthalazin-1(2H)-one]	> 10000 nM	5260 nM
NCc1n[nH]c(=O)c2ccc(C3(C(=O)N(Cc4ccc(C(F)(F)F)cn4)C4CCCc5cccnc54)CC3)cc12 (stereo not shown) [Example 1, 1-(4-(aminomethyl)-1-oxo-1,2-dihydrophthalazin-6-yl)-N-(5,6,7,8-tetrahydroquinolin-8-yl)-N-((5-(trifluoromethyl)pyridin-2-yl)methyl)cyclopropane-1-carboxamide]	> 10000 nM	98 nM
NCc1n[nH]c(=O)c2ccc(C3(C(=O)N(Cc4ccc(C(F)(F)F)cn4)[C@@H]4CCCc5cccnc54)CC3)cc12 [Example 2A, (R)-1-(4-(aminomethyl)-1-oxo-1,2-dihydrophthalazin-6-yl)-N-(5,6,7,8-tetrahydroquinolin-8-yl)-N-((5-(trifluoromethyl)pyridin-2-yl)methyl)cyclopropane-1-carboxamide]	3680 nM	98 nM
NCc1n[nH]c(=O)c2ccc(C3(C(=O)N(Cc4ccc(C(F)(F)F)cn4)[C@H]4CCCc5cccnc54)CC3)cc12 [Example 2B, (S)-1-(4-(aminomethyl)-1-oxo-1,2-dihydrophthalazin-6-yl)-N-(5,6,7,8-tetrahydroquinolin-8-yl)-N-((5-(trifluoromethyl)pyridin-2-yl)methyl)cyclopropane-1-carboxamide]	> 10000 nM	> 10000 nM
NCc1n[nH]c(=O)c2ccc(C3(C(=O)N(Cc4ccc(-c5c(Cl)cccc5Cl)cn4)C4CCCc5cccnc54)CC3)cc12 (stereo not shown) [Example 3, 1-(4-(aminomethyl)-1-oxo-1,2-dihydrophthalazin-6-yl)-N-((5-(2,6-dichlorophenyl)pyridin-2-yl)methyl)-N-(5,6,7,8-tetrahydroquinolin-8-yl)cyclopropane-1-carboxamide]	3870 nM	57 nM
NCc1n[nH]c(=O)c2ccc(C3(C(=O)N(Cc4ccc(-c5c(Cl)cccc5Cl)cn4)[C@@H]4CCCc5cccnc54)CC3)cc12 [Example 4A, (R)-1-(4-(aminomethyl)-1-oxo-1,2-dihydrophthalazin-6-yl)-N-((5-(2,6-dichlorophenyl)pyridin-2-yl)methyl)-N-(5,6,7,8-tetrahydroquinolin-8-yl)cyclopropane-1-carboxamide]	2950 nM	85 nM
NCc1n[nH]c(=O)c2ccc(C3(C(=O)N(Cc4ccc(-c5c(Cl)cccc5Cl)cn4)[C@H]4CCCc5cccnc54)CC3)cc12 [Example 4B, (S)-1-(4-(aminomethyl)-1-oxo-1,2-dihydrophthalazin-6-yl)-N-((5-(2,6-dichlorophenyl)pyridin-2-yl)methyl)-N-(5,6,7,8-tetrahydroquinolin-8-yl)cyclopropane-1-carboxamide]	5910 nM	1540 nM
CC1(C)COc2nc(CN(C(=O)C3(c4ccc5c(=O)[nH]nc(CN)c5c4)CC3)C3CCCc4cccnc43)ccc21 (stereo not shown) [Example 5, 1-(4-(aminomethyl)-1-oxo-1,2-dihydrophthalazin-6-yl)-N-((3,3-dimethyl-2,3-dihydrofuro[2,3-b]pyridin-6-yl)methyl)-N-(5,6,7,8-tetrahydroquinolin-8-yl)cyclopropane-1-carboxamide]	> 10000 nM	707 nM
CC(C)(O)c1ccc(CN(C(=O)C2(c3ccc4c(=O)[nH]nc(CN)c4c3)CC2)C2CCCc3cccnc32)nc1 (stereo not shown) [Example 6, 1-(4-(aminomethyl)-1-oxo-1,2-dihydrophthalazin-6-yl)-N-((5-(2-hydroxypropan-2-yl)pyridin-2-yl)methyl)-N-(5,6,7,8-tetrahydroquinolin-8-yl)cyclopropane-1-carboxamide]	> 10000 nM	2560 nM
Cc1cc(CN(C(=O)C2(c3ccc4c(=O)[nH]nc(CN)c4c3)CC2)C2CCCc3cccnc32)ncc1C(F)(F)F (stereo not shown) [Example 7, 1-(4-(aminomethyl)-1-oxo-1,2-dihydrophthalazin-6-yl)-N-((4-methyl-5-(trifluoromethyl)pyridin-2-yl)methyl)-N-(5,6,7,8-tetrahydroquinolin-8-yl)cyclopropane-1-carboxamide]	> 10000 nM	285 nM
Cc1nc(CN(C(=O)C2(c3ccc4c(=O)[nH]nc(CN)c4c3)CC2)C2CCCc3cccnc32)ccc1-c1ccccc1 (stereo not shown) [Example 8, 1-(4-(aminomethyl)-1-oxo-1,2-dihydrophthalazin-6-yl)-N-((6-methyl-5-phenylpyridin-2-yl)methyl)-N-(5,6,7,8-tetrahydroquinolin-8-yl)cyclopropane-1-carboxamide]	5250 nM	255 nM
NCc1n[nH]c(=O)c2ccc(C3(C(=O)N(Cc4ccc(C(F)(F)F)cn4)Cc4c(F)cccc4Cl)CC3)cc12 [Example 9, 1-(4-(aminomethyl)-1-oxo-1,2-dihydrophthalazin-6-yl)-N-(2-chloro-6-fluorobenzyl)-N-((5-(trifluoromethyl)pyridin-2-yl)methyl)cyclopropane-1-carboxamide]	4670 nM	222 nM
NCc1n[nH]c(=O)c2ccc(C3(C(=O)N(Cc4ccc(-c5ccccc5)cn4)C4CCCc5cccnc54)CC3)cc12 (stereo not shown) [Example 10, 1-(4-(aminomethyl)-1-oxo-1,2-dihydrophthalazin-6-yl)-N-((5-phenylpyridin-2-yl)methyl)-N-(5,6,7,8-tetrahydroquinolin-8-yl)cyclopropane-1-carboxamide]	7230 nM	18 nM
NCc1n[nH]c(=O)c2ccc(C3(C(=O)N(Cc4ccc(-c5ccccc5)cn4)[C@@H]4CCCc5cccnc54)CC3)cc12 [Example 11A, (R)-1-(4-(aminomethyl)-1-oxo-1,2-dihydrophthalazin-6-yl)-N-((5-phenylpyridin-2-yl)methyl)-N-(5,6,7,8-tetrahydroquinolin-8-yl)cyclopropane-1-carboxamide]	2790 nM	57 nM
NCc1n[nH]c(=O)c2ccc(C3(C(=O)N(Cc4ccc(-c5ccccc5)cn4)[C@H]4CCCc5cccnc54)CC3)cc12 [Example 11B, (S)-1-(4-(aminomethyl)-1-oxo-1,2-dihydrophthalazin-6-yl)-N-((5-phenylpyridin-2-yl)methyl)-N-(5,6,7,8-tetrahydroquinolin-8-yl)cyclopropane-1-carboxamide]	> 10000 nM	2090 nM
Cc1nc(CN(C(=O)C2(c3ccc4c(=O)[nH]nc(CN)c4c3)CC2)C2CCCc3cccnc32)sc1I (stereo not shown) [Example 12, 1-(4-(aminomethyl)-1-oxo-1,2-dihydrophthalazin-6-yl)-N-((5-iodo-4-methylthiazol-2-yl)methyl)-N-(5,6,7,8-tetrahydroquinolin-8-yl)cyclopropane-1-carboxamide]	6010 nM	482 nM
N#Cc1cccc(Cl)c1-c1ccc(CN(C(=O)C2(c3ccc4c(=O)[nH]nc(CN)c4c3)CC2)C2CCCc3cccnc32)nc1 (stereo not shown) [Example 13, 1-(4-(aminomethyl)-1-oxo-1,2-dihydrophthalazin-6-yl)-N-((5-(2-chloro-6-cyanophenyl)pyridin-2-yl)methyl)-N-(5,6,7,8-tetrahydroquinolin-8-yl)cyclopropane-1-carboxamide]	3950 nM	62 nM
